Laboratory results from patent US11306051B2, “Use of vanillin derivatives as a preservative, preservation method, compounds, and composition” (L'OREAL, priority 2009, dated 2022).

Columns and labels:
Assay type in all cases: cell-based
[1] = system: Escherichia coli (Ec) ATCC 8739; test: Challenge Test (artificial contamination) of cosmetic formula, E. coli; conditions: 2% compound in cosmetic formula; inoculation about 10^6 cfu/gram; 7 days contact at 22° C.±2° C. in darkness; <200 cfu = sensitivity threshold
Procedure: (§1) The antimicrobial efficacy of a compound of formula (I) was evaluated via the Challenge Test or artificial contamination method. The method of the challenge test consists of an artificial contamination of the sample with collection microbial strains (bacteria, yeasts and moulds) and evaluation of the number of revivable microorganisms seven days after the inoculation. […] [table] […] After 7 days of contact time between the microorganisms and the product at 22° C.±2° C. and in darkness, decimal dilutions are performed and the number of revivable microorganisms remaining in the product is counted.

[2] = system: Pseudomonas aeruginosa (Pa) ATCC 19429; test: Challenge Test (artificial contamination) of cosmetic formula, P. aeruginosa; conditions: 2% compound in cosmetic formula; inoculation about 10^6 cfu/gram; 7 days contact at 22° C.±2° C. in darkness; <200 cfu = sensitivity threshold
Procedure: as §1

[3] = system: Enterococcus faecalis (Ef) ATCC 33186; test: Challenge Test (artificial contamination) of cosmetic formula, E. faecalis; conditions: 2% compound in cosmetic formula; inoculation about 10^6 cfu/gram; 7 days contact at 22° C.±2° C. in darkness; <200 cfu = sensitivity threshold
Procedure: as §1

[4] = system: Candida albicans (Ca) ATCC 10231; test: Challenge Test (artificial contamination) of cosmetic formula, C. albicans; conditions: 2% compound in cosmetic formula; inoculation about 10^6 cfu/gram; 7 days contact at 22° C.±2° C. in darkness; <200 cfu = sensitivity threshold
Procedure: as §1

[5] = system: Aspergillus niger (An) ATCC 6275; test: Challenge Test (artificial contamination) of cosmetic formula, A. niger; conditions: 2% compound in cosmetic formula; inoculation about 10^6 cfu/gram; 7 days contact at 22° C.±2° C. in darkness
Procedure: The antimicrobial efficacy of a compound of formula (I) was evaluated via the Challenge Test or artificial contamination method. The method of the challenge test consists of an artificial contamination of the sample with collection microbial strains (bacteria, yeasts and moulds) and evaluation of the number of revivable microorganisms seven days after the inoculation. […] [table] The gram-negative bacteria (Escherichia coli and Pseudomonas aeruginosa), gram-positive bacteria (Enterococcus faecalis), yeast (Candida albicans) and mould (Aspergillus niger) are seeded in the subculturing medium, respectively, the day before the inoculation for the bacteria and the yeast, and five days before the inoculation for the mould. for the mould, the spores are collected by washing the agar with 6 to 7 ml of harvesting solution and the suspension is recovered in a sterile tube or flask. After homogenizing the microbial suspension, 0.2 ml of inoculum is introduced into each pill bottle (the suspensions are used pure: between 1×10^8 and 3×10^8 cfu per ml) and the microbial suspension in the 20 g of product (=cosmetic formula) is homogenized thoroughly using a spatula. […] After 7 days of contact time between the microorganisms and the product at 22° C.±2° C. and in darkness, decimal dilutions are performed and the number of revivable microorganisms remaining in the product is counted.

Structure (SMILES): CCOc1cc(CCC(C)=O)ccc1O [Compound]
- No. of cfu/gram of product at T7 days, E. coli [1]: <200 cfu/gram of product
- No. of cfu/gram of product at T7 days, P. aeruginosa [2]: <200 cfu/gram of product
- No. of cfu/gram of product at T7 days, E. faecalis [3]: <200 cfu/gram of product
- No. of cfu/gram of product at T7 days, C. albicans [4]: <200 cfu/gram of product
- No. of cfu/gram of product at T7 days, A. niger [5]: 3.4 × 10^5 cfu/gram of product
